According to the kinase profiling compilation of Christmann-Franck et al. (2016):

What was measured:
AKT1 (human) = AKT1 (human) (UniProt P31749); test: KINOMEscan competition binding; settings: compound 10.0 µM
AURKA (human) = AURKA (human) (UniProt O14965); test: KINOMEscan competition binding; settings: compound 10.0 µM
AXL (human) = AXL (human) (UniProt P30530); test: KINOMEscan competition binding; settings: compound 10.0 µM
NUAK2 (human) = NUAK2 (human) (UniProt Q9H093); test: KINOMEscan competition binding; settings: compound 10.0 µM
CHUK (human) = CHUK (human) (UniProt O15111); test: KINOMEscan competition binding; settings: compound 10.0 µM
EPHA2 (human) = EPHA2 (human) (UniProt P29317); test: KINOMEscan competition binding; settings: compound 10.0 µM
CDK14 (human) = CDK14 (human) (UniProt O94921); test: KINOMEscan competition binding; settings: compound 10.0 µM
SRPK3 (human) = SRPK3 (human) (UniProt Q9UPE1); test: KINOMEscan competition binding; settings: compound 10.0 µM
MAP3K12 (human) = MAP3K12 (human) (UniProt Q12852)
Chain of MAP3K12 (human) (Q12852 whole entry, looked up): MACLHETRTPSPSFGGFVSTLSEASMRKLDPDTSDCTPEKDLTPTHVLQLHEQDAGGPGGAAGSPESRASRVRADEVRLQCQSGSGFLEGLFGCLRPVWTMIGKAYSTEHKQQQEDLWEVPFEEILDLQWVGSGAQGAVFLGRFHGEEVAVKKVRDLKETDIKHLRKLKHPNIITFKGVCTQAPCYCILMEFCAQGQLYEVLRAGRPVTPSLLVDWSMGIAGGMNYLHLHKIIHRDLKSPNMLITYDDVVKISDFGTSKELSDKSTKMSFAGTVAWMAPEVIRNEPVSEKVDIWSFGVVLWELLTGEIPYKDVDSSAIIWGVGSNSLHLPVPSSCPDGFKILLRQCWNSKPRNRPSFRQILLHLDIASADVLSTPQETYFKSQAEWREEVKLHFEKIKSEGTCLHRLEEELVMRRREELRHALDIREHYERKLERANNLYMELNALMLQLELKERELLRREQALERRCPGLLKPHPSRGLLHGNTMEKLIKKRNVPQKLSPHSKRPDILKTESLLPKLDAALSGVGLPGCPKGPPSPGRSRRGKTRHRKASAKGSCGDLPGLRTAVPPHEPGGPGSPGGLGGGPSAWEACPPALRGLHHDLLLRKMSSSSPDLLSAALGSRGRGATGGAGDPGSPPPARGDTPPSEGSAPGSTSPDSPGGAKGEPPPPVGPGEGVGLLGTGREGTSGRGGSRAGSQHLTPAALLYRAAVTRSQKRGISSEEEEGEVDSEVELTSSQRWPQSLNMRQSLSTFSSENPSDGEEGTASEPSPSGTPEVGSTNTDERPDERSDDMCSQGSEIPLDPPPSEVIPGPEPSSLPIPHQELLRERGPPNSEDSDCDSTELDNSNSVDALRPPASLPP

Chain of CDK14 (human) (O94921 whole entry, looked up): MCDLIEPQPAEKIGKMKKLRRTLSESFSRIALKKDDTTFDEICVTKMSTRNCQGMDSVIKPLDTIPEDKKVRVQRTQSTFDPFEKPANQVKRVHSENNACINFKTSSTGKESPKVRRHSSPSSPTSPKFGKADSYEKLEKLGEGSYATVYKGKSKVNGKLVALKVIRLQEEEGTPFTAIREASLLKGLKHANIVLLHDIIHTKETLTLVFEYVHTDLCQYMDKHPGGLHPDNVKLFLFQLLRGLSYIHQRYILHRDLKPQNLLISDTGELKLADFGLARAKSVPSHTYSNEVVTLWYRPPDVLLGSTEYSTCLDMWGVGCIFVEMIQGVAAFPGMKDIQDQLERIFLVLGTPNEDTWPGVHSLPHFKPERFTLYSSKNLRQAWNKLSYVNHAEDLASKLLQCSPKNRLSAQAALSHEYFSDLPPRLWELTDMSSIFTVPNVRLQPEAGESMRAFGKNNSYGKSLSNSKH
Chain of SRPK3 (human) (Q9UPE1 whole entry, looked up): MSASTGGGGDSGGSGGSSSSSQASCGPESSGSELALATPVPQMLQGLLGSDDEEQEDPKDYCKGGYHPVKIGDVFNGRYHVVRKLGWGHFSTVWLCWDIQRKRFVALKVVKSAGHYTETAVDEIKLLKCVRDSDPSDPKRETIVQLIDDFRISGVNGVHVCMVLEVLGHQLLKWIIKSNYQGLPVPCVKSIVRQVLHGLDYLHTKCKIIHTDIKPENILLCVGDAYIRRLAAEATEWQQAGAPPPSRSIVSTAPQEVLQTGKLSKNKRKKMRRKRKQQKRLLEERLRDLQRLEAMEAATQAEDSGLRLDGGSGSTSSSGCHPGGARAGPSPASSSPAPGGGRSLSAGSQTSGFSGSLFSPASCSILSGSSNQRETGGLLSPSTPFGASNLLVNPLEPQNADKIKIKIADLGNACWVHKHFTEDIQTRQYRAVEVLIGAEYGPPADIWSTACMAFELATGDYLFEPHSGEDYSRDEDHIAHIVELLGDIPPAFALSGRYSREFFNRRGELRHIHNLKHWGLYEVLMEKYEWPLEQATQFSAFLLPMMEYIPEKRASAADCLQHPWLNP
Chain of AXL (human) (P30530 whole entry, looked up): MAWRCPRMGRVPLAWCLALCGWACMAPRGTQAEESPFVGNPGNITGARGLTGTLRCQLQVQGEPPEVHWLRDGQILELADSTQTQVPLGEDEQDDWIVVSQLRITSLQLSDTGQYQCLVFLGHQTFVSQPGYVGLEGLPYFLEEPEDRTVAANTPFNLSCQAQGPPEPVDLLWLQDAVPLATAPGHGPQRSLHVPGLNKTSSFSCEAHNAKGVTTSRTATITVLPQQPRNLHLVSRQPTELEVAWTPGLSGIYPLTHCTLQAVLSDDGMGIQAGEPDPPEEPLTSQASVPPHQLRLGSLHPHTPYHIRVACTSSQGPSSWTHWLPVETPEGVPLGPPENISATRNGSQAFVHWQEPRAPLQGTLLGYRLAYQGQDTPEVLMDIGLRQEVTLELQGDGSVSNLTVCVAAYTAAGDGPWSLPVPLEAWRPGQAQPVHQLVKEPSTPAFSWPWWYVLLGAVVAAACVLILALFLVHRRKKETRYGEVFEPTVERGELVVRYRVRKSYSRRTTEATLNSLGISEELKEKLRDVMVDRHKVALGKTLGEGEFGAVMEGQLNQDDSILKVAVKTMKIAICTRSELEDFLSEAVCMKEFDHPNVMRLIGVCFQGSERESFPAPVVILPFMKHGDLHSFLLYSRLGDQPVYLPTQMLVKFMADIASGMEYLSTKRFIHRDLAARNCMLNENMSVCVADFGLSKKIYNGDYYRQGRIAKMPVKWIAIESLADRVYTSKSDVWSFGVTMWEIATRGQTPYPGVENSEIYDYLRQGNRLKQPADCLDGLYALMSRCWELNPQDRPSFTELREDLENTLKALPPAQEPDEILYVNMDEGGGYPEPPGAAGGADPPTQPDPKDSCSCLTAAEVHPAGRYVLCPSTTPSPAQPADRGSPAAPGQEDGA
Chain of AURKA (human) (O14965 whole entry, looked up): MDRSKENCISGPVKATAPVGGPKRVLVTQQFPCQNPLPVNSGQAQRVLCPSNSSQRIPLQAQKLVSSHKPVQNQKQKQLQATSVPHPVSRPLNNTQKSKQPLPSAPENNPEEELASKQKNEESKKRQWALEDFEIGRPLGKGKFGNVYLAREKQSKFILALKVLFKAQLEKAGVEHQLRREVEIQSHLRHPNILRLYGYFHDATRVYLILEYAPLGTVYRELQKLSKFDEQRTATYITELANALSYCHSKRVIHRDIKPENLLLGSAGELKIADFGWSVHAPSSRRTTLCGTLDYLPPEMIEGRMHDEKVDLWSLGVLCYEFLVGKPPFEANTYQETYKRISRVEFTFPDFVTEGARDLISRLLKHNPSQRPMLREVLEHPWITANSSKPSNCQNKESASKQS
Chain of AKT1 (human) (P31749 whole entry, looked up): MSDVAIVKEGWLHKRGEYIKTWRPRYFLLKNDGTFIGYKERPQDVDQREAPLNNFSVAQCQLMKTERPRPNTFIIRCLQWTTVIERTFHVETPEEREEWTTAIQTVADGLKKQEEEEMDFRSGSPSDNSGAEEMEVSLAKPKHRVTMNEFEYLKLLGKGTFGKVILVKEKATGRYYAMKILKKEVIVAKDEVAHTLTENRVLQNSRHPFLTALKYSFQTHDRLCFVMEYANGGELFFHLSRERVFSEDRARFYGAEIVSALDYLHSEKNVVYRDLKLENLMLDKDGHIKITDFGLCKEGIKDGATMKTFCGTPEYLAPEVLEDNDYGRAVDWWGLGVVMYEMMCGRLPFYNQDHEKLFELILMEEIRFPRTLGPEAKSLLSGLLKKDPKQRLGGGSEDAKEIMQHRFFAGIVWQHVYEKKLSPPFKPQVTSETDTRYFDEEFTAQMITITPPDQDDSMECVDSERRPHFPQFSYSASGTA
Chain of NUAK2 (human) (Q9H093 whole entry, looked up): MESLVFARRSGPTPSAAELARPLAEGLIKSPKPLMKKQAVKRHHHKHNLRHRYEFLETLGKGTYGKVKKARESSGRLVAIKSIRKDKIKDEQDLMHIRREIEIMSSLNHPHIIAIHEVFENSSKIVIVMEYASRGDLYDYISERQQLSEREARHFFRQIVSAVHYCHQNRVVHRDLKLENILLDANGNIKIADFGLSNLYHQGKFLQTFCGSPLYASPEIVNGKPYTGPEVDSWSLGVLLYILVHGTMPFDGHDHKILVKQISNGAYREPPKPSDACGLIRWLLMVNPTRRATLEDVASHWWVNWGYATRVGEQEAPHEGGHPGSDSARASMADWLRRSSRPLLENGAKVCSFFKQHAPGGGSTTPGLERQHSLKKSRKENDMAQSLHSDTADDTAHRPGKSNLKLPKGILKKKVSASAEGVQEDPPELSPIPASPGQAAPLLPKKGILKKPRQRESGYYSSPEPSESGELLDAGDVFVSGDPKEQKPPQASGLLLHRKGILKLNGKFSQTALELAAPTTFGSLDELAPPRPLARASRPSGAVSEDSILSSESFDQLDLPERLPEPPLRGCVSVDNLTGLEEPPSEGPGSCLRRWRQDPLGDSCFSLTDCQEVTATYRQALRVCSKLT
Chain of CHUK (human) (O15111 whole entry, looked up): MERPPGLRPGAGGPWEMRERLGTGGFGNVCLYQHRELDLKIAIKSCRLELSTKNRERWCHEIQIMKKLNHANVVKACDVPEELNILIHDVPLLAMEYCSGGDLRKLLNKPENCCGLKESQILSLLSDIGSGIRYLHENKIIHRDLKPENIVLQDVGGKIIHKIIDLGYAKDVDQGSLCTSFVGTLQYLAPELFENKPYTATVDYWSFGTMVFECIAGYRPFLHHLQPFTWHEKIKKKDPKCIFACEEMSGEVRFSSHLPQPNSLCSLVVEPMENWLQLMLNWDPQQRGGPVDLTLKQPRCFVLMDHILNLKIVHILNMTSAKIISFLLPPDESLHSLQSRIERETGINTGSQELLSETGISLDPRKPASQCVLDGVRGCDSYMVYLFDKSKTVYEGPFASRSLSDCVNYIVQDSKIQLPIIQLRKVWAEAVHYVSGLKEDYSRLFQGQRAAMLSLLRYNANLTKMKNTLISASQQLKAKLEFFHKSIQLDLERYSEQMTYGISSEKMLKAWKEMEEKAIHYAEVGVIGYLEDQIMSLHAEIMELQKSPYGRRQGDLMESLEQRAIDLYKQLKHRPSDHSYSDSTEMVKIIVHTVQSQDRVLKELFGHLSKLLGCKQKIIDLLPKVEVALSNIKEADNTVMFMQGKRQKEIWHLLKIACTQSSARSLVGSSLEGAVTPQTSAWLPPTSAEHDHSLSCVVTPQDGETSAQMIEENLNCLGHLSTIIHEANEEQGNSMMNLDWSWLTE

## O=C(Nc1ccc(Oc2ncnc3[nH]ncc23)cc1)Nc1ccc(Cl)c(C(F)(F)F)c1
AKT1 (human)
  kinase still bound, per cent of control: 100%
AURKA (human)
  kinase still bound, per cent of control: 23%
AXL (human)
  kinase still bound, per cent of control: 25%
NUAK2 (human)
  kinase still bound, per cent of control: 73%
CHUK (human)
  kinase still bound, per cent of control: 51%
EPHA2 (human)
  kinase still bound, per cent of control: 37%
CDK14 (human)
  kinase still bound, per cent of control: 23%
SRPK3 (human)
  kinase still bound, per cent of control: 100%
MAP3K12 (human)
  IC50: > 10 µM
